The test system of experiment [1] is human non-small cell lung carcinoma cells (H1299). Nature of the experiment: Mitochondrial morphology and distribution by immunofluorescence staining, H1299. It is filed as cell-based. The settings on record: 1 μM or 2.5 μM, 24 hours, anti-TOM20 staining. As for the experimental part:
(§1) The effects of isoplumbagin on mitochondrial morphology and distribution of OC3-IV2, U87, H1299 and PC3 cell lines were measured by immunofluorescence staining After OC3-IV2, U87, H1299, and PC3 cells were treated with DMSO, 1 μM, or 2.5 μM isoplumbagin for 24 hours, cells were fixed by 4% (v/v) paraformaldehyde and permeabilized by 0.1% (v/v) Triton X-100. Cells were incubated in blocking buffer containing 1% bovine serum albumin. After blocking, cells were incubated overnight with indicated primary antibodies against TOM20 (a mitochondria marker, sc-11415, Santa Cruz), and then incubated with Alexa Fluor 488-conjugated secondary antibodies (A11001, Invitrogen). Nucleus was stained with DAPI, actin was stained with rhodamine phalloidin (A12379, Invitrogen) and cells were mounted using Prolong Gold reagent (P36930, Invitrogen). 63 images were taken by LSM800 confocal microscopes (Zeiss).
(§2) FIGS. 5A-5D show the effect of isoplumbagin on mitochondrial morphogenesis and distribution of oral squamous cell carcinoma cells (OC3-IV2), human primary glioblastoma cells (U87), human non-small cell lung carcinoma cells (H1299) and human prostate cancer cells (PC3). Cells treated with either solvent control (DMSO) or isoplumbagin were determined by immunofluorescence staining using anti-TOM20 (mitochondria, green) antibody, rhodamine phalloidin (actin, red) and DAPI (nucleus, blue). […]

Experiment [2] concerns oral squamous cell carcinoma cells (OC3-IV2). The experiment is described as follows: Mitochondrial morphology and distribution by immunofluorescence staining, OC3-IV2. Format: cell-based, human. The settings on record: 1 μM or 2.5 μM, 24 hours, anti-TOM20 staining. As for the experimental part: as §1, §2
Experiment [3] deals with human primary glioblastoma cells (U87). Nature of the experiment: MTT survival assay, U87. It is filed as cell-based. The note with it: 48 h, read-out: IC50, survival rate. As for the experimental part:
According to the present invention, Human primary glioblastoma cell line U87 were obtained from the American Type Culture Collection (ATCC® HTB-14™, Manassas, Va., USA) and grown in DMEM medium supplemented with 10% FBS, 1% MEM Non-Essential Amino Acids Solution (Invitrogen) and 1% penicillin/streptomycin (Invitrogen). The incubator was maintained at 5% CO2 and a constant temperature of 37° C., and the culture medium was changed every two days.
(§3) Isoplumbagin (AKOS006277326, acquired from AKos GmbH, Steinen, Germany) was dissolved in dimethyl sulfoxide (DMSO) and added to the medium, so that the final concentration of DMSO was less than 0.1%. The survival rate of isoplumbagin on OC3-IV2, U87, H1299 and PC3 cell lines was determined using the 3-(4,5-dimethylthiazol-2-yl)-2,5-diphenyltetrazolium bromide (MTT; Sigma-Aldrich) assays. 3×10^3 cells/well were seeded in 96-well plates. After incubation for 24 h, cells were treated with isoplumbagin at various concentrations (0, 1, 5, 10, 25, 50 and 100 μM) and incubated for a further 48 h. At the end of treatment, 10 μL 5 mg/mL MTT was added to each well. After incubation at 37° C. for 3 h, medium was removed and DMSO was added to each well to dissolve reduced MTT product formazan. The absorbance of dissolved formazan was measured at 550 nm wavelengths by a spectrophotometer. […]

Experiment [4] deals with oral squamous cell carcinoma cells (OC3-IV2). Nature of the experiment: Oxygen consumption rate in intact cells (O2k Oxygraph). It is filed as cell-based, human. The settings on record: 2.5 μM, one independent experiment. As for the experimental part: Oxygen consumption rate (OCR) in intact cells suspension was measured by O2k Oxygraph (Oroboros Instruments). DMSO or 2.5 μM isoplumbagin treated cells were detached from the plate by trypsinization and suspended at 5×10^5 cells/ml in DMEM/KSFM medium supplemented with 10% FBS into the O2k chambers. Oxygen consumption rate of DMSO or isoplumbagin treated cells samples were measured by adding 0.5 μM oligomycin, 0.5 μM FCCP, 1 μM rotenone and 1 μM antimycin A.
FIGS. 6A and 6B show the inhibitory effect of isoplumbagin on mitochondrial function and complex IV activity of oral squamous cell carcinoma cells (OC3-IV2). Oxygen consumption rate (OCR) of OC3-IV2 cells treated with DMSO (as control) or 2.5 μM isoplumbagin were measured by Oroboros instruments (FIG. 6A). […] OC3-IV2 cells treated with DMSO or 2.5 μM isoplumbagin were permeabilized with 5 μM digitonin (Dig) and added indicated substrates and inhibitors, and then mitochondria complex I/IV activity were determined by Oroboros instruments (FIG. 6B). Glu/Mal: glutamate (10 mM) and malate (2 mM), ADP (5 mM), Omy: oligomycin (0.5 μM), FCCP (0.5 nM), Rot: rotenone (1 μM), Ama: antimycin A (2 μM), TMPD: tetramethyl-p-phenylenediamine (0.1 mM), Asc: ascorbate (0.4 mM) and NaN3 5 mM. Data from three independent experiments are presented as mean ±SEM (*P<0.05, paired Student's t-test).

Experiment [5] shares this test system. Nature of the experiment: MTT survival assay, OC3-IV2. It is filed as cell-based. The settings on record: Homo sapiens, 48 h, read-out: IC50, survival rate. As for the experimental part:
According to the present invention, human oral cancer cell line OC3-IV2 cells (Lin S C et al, J Oral Pathol Med. 2004 February; 33(2):79-86 and Lu Y C et al, Cancer Prey Res (Phila). 2012 April; 5(4):665-74) were cultured in a 1:1 ratio of Dulbecco's modified Eagle medium (DMEM; Invitrogen) and keratinocyte serum-free medium (KSFM; Invitrogen) containing 10% fetal bovine serum (FBS; Invitrogen, Carlsbad, Calif., USA), 1% L-glutamine (L-Gln, Invitrogen) and 1% antibiotic-antimycotic (AA, Invitrogen). Cells were maintained in a humidified atmosphere containing 5% CO2 at 37° C., and the culture medium was replaced every 2 days.
as §3, with “After incubation at 37° C. for 3 h, medium was removed and DMSO was added to each well to dissolve reduced MTT product formazan.” left out
On the technique in general: Tetrazolium assays rely on reduction of a dye to a coloured formazan, in cell work by metabolically active cells.

Experiment [6] relates to human non-small cell lung carcinoma cells (H1299). The experiment is described as follows: MTT survival assay, H1299. It is filed as cell-based. The settings on record: NCI-H1299, 48 h, read-out: IC50, survival rate. As for the experimental part: According to the present invention, human non-small cell lung carcinoma cell H1299 were obtained from ATCC (ATCC® CRL-5803™) cultured in Roswell Park Memorial Institute (RPMI) 1640 medium (Invitrogen) containing 10% FBS, 1% L-Gln and 1% AA. Cells were maintained in a humidified atmosphere containing 5% CO2 at 37° C., and the culture medium was replaced every 2 days.
as §3

We go through one compound from US20210113492A1, “METHOD FOR INHIBITING PROLIFERATION AND METASTASIS OF CANCER CELLS BY USING NAPHTHOQUINONE DERIVATIVE” (National Tsing Hua University, priority 2019, published 2021).

In brackets after ≈: the same amount, converted by molar mass.

One may read the IC50 as the midpoint of a concentration-inhibition curve. As for `CC1=CC(=O)c2cccc(O)c2C1=O` [isoplumbagin, 5-hydroxy-3-methyl-1,4-naphthoquinone], the “mitochondrial morphogenesis and distribution” value was “can alter the mitochondrial morphogenesis and distribution” in experiment [1]; “can alter the mitochondrial morphogenesis and distribution” in experiment [2]. Further, the IC50 worked out at 0.45 µg/mL (≈ 2.39 µM) in experiment [3], 1.02 µg/mL (≈ 5.42 µM) in experiment [5] and 0.28 µg/mL (≈ 1.49 µM) in experiment [6]. Further, in experiment [4], the “mitochondrial function (oxygen consumption rate)” value is reported as “can reduce mitochondrial function”.
